Results taken from PMC7497240 (Chembiochem, 2020).

Biological target: T1, ABCG2 (Homo sapiens, UniProt Q9UNQ0)
T1 sequence (Q9UNQ0 1-655): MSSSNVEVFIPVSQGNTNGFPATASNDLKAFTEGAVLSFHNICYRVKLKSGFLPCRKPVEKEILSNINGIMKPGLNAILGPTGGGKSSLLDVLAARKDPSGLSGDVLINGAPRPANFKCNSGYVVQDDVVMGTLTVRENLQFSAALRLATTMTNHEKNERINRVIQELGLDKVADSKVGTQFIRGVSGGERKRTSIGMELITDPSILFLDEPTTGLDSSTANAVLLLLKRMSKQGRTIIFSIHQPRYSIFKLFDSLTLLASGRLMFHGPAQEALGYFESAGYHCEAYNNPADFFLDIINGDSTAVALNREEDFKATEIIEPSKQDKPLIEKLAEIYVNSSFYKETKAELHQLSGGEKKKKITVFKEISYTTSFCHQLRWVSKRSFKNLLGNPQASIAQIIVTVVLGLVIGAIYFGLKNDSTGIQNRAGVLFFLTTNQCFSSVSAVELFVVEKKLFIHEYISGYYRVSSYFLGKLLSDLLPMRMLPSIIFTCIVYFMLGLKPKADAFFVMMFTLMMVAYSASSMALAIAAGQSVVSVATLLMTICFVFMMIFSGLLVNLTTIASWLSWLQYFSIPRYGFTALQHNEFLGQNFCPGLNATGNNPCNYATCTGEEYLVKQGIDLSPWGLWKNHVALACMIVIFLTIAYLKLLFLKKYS
Experiment: Hoechst […] accumulation assay in ABCG2-transfected MDCK II BCRP cells
Type: cell-based

In the case of O=C1NC(=O)c2c1c1c3ccccc3[nH]c1c1[nH]c3ccccc3c21 [compound 8, arcyriaflavin A], the IC50 is reported as 9 µM.
